Assay results published in patent publication US10723716B2, “Alpha-helix mimetics as modulators of Abeta self-assembly” (New York University, priority 2016, dated 2020).
“Also recorded” adds a separate entry of the source. Read-outs that look alike come from different tables or passages of the source.

How the values were obtained:
Aβ42 [1] = biological target: T1, Aβ42 (Homo sapiens, UniProt P05067); assay: ThT-based kinetic assay of Aβ42 aggregation; format: biochemical; details: for effect on Aβ42 oligomerization/fibrillation (ThT): equimolar ratio
T1 construct: Cleavage of APP results in several Aβ isoforms; The predominant species are Aβ42 and Aβ40; purchased Anaspec (Fremont, Calif., USA)
T1 sequence (P05067 672-713 limits assumed): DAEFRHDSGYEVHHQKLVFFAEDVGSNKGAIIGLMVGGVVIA
Source text: The aggregation of Aβ42 was monitored using an established exogenous dye, Thioflavin T (ThT) that intercalates between the amyloid fibers along the perpendicular axis without affecting the kinetics of amyloid formation. (see Wolfe, L. S.; Calabrese, M. F.; Nath, A.; Blaho, D. V.; Miranker, A. D.; Xiong, Y. Proc. Natl. Acad. Sci. U.S.A. 2010, 107, 16863-16868; Levine, H. Protein Sci. 1993, 2, 404-410). A representative ThT-based kinetic assay results are depicted in FIG. 2. The oligomerization reaction of Aβ42 was initiated by diluting a 1 mM stock solution of Aβ42 (in DMSO) to a concentration of 20 μM in phosphate buffer (150 mM KCl, 50 mM NaPi, pH 7.4). Aβ42 fibrillation is a nucleation-dependent polymerization process and is characterized by a sigmoidal curve consisting of a lag phase, an elongation phase, and a plateau phase (FIG. 2a). The kinetic reaction was quantified by extracting t50, which is the time required to reach 50% of the maximum fluorescence that results from fibrillation. Under standard conditions the tso for Aβ42 fibrillation was 2.1±0.2 h (FIG. 2a and FIG. 8).
(§1) Kinetic assays were conducted on a FlexStation 3 Multi-Mode Microplate reader from Molecular Devices (Sunnyvale, Calif., USA). Experiments were conducted in triplicate in a 96-well plate with a final volume of 200 μL per well. Every measurement was an average of 50 readings. The aggregation of an amyloidogenic peptide (Aβ40, Aβ42, or IAPP) was initiated by the addition of the peptide from a stock solution (in DMSO, 0.5-1 mM) to phosphate buffer. The final concentration of each peptide was different based on their aggregation. The stoichiometry of ThT dye for each peptide was 0.5:1 (ThT:peptide). Peptide aggregation was monitored by ThT fluorescence (λex=445 nm and λem=485 nm). The blank sample contained all the components of the peptide samples except the peptide. The sample data were processed by subtracting the fluorescence of the blank sample. The fluorescence intensity data was then normalized by setting the maximum value to 1.
(§2) Kinetic assays in the presence of the compounds of the invention were conducted under the same conditions. The small molecules were added from a stock solution (1 mM or 10 mM in DMSO) to keep the final concentration of DMSO less than 1.0% (v/v). Small molecules were added to the wells with ThT and buffer and mixed gently with a pipette before adding the peptide. To keep the conditions identical, an equal amount of DMSO was added to the wells with the peptide-only control reactions.
(§3) Kinetic profiles were processed using Origin (version 9.1). Kinetic curves were fit using the built-in sigmoidal fit. Each run was fit independently to extract the t50 (time required to reach 50% of the maximum fluorescence intensity). Error bars represent standard deviations from the mean of at least three independent experiments.
In the delayed addition experiments, where the oligopyridylamides were added at various time points during Aβ amyloid reaction, the conditions were same (as used for the assays where Aβ was preincubated with the oligopyridylamides). The Aβ oligomerization process was initiated by dissolving Aβ into buffer solution and then oligopyridylamides were added to this solution at indicated time points (depend on the assay) at an equimolar ratio.

IAPP = biological target: T2, IAPP (Homo sapiens, UniProt P10997); assay: ThT-based kinetic assay of IAPP aggregation; format: biochemical; details: for effect on IAPP fibrillation / amyloid formation (ThT): equimolar ratio (IAPP 10 μM, FIG. 25c, 26c, 27m)
T2 construct: purchased Anaspec (Fremont, Calif., USA)
T2 sequence (P10997 34-70 limits assumed): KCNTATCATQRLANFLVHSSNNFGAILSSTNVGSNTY
Method: as §1, §2, §3

Aβ42 [2] = biological target: T1, Aβ42; assay: Seed-catalyzed kinetic assay, Aβ42; format: biochemical; details: equimolar ratio, preformed fibers (seeds)
Method: Seeds of Aβ40/Aβ42 were prepared by incubating 200 μM of Aβ40/Aβ42 in phosphate buffer at room temperature. The samples were aged for 48 h and the formation of fibers was confirmed by TEM and ThT before storage at −20° C. until use. For the aggregation of Aβ40, 10% (based on the monomeric Aβ40, v/v) seeds were added along with ThT in phosphate buffer to the 96-well plate. The aggregation was initiated by the addition of monomeric Aβ40 followed by gentle mixing. The process was similar in the case of Aβ42 except that the seed concentration was 5% (based on the monomeric Aβ42, v/v).
The seeds were generated by aging 200 μM Aβ peptides for 48 h in phosphate buffer with occasional vortexing. The concentration of seeds was calculated based on the monomeric concentration of Aβ.

Aβ42 [3] = biological target: T1, Aβ42; assay: Dot blot assay with A11 antibody; format: biochemical; details: Aβ42, equimolar ratio, whole time course
Method: Samples of Aβ42 at concentrations from 2 μM to 5 μM were incubated at various time intervals in the absence and presence of the compounds of the invention at an equimolar ratio (see FIG. 4j). The samples were then applied to a nitrocellulose membrane and dried at room temperature for 1 h or overnight at 4° C. The membranes were then blocked with 5% nonfat milk in Tris buffer (20 mM Tris, pH 7.4) for 1 h at room temperature. The nitrocellulose membranes were then washed (×3) with 20 mM Tris, pH 7.4 supplemented with 0.01% Tween-20 (TBST) and incubated with polyclonal A11 antibody (1/1000 dilution in 5% nonfat milk in TBST, Life Technologies Corp., Grand Island, N.Y., USA) overnight at 4° C. Samples were then washed (×3) with TBST buffer and incubated with horseradish peroxidase (HRP) conjugated anti-rabbit IgG (1/500 dilution in 5% nonfat free milk in TBST) at r.t. for 1 h. The dot blots were then washed with TBST buffer (×3), developed using the ECL reagent kit (Amersham, Piscataway, N.J., USA), and imaged using a Typhoon FLA 9000 instrument (GE Healthcare Life Sciences, Pittsburgh, Pa., USA) using chemiluminescence settings. A similar experiment was repeated using 6E10 antibody ( 1/1000 dilution in 5% nonfat free milk in TBST, Biolegend, San Diego, Calif., USA) for comparison.

[4] = test system: IAPP mediated toxicity in rat INS-1 cells; assay: IAPP mediated toxicity in INS-1 cells; format: cell-based; details: equimolar ratio
Aβ42 [5] = biological target: T1, Aβ42; assay: ThT-based kinetic assay of Aβ42 aggregation; format: biochemical; details: 5 μM Aβ42, equimolar, compound added at 2 h
[6] = test system: Aβ42 mediated toxicity in mouse neuroblastoma (N2a) cells; assay: Aβ42 mediated toxicity in Neuro-2a cells (MTS cell viability); format: cell-based; details: for IC50: 5 μM Aβ42, N2a cells, read-out: IC50 (concentration required to inhibit 50% cell toxicity induced by 5 μM Aβ42); for cell viability, delayed addition: in % (unit assumed)
[7] = mouse/rat NG108-15, N2a, 5 μM Aβ42 + seeds (10% v/v), 5 μM compound, without compound 31%, read-out: cell viability, seed-induced Aβ42 cytotoxicity

Compound | effect on Aβ42 oligomerization/fibrillation (ThT) (Aβ42 [1]) | effect on IAPP fibrillation / amyloid formation (ThT) (IAPP) | effect on seed-catalyzed Aβ42 fibrillation (Aβ42 [2]) | A11 signal intensity of the dots (Aβ42 [3]) | cell viability ([4]; IAPP, INS-1 cells, IAPP alone 65±6%) | effect on Aβ42 amyloid reaction on delayed addition (Aβ42 [5]) | IC50 ([6]; mouse/rat NG108-15, N2a) | viability at 5 µM [6, 7] | change in ThT fluorescence intensity in control reaction (Aβ42 [1]; control reaction without Aβ42, matched conditions) | ThT fluorescence intensity characteristic of Aβ42 oligomers (Aβ42 [1]; sub-stoichiometric ratios of 1:0.5 and 1:0.1 (Aβ42:ADH-41)) | effect on aggregation of IAPP (ThT) (IAPP; 20 μM IAPP, equimolar ratio (FIG. 3b, 3c, 13)) | effect on IAPP mediated toxicity ([4]; rat INS-1 cells) | IC50 [6] | cell viability, delayed addition ([6]; ADH-41 added after 24 h of exposure to 5 μM Aβ42) | cell viability, delayed addition ([6]; ADH-41 added after 48 h of exposure to 5 μM Aβ42) | viability at 5 µM ([6]; mouse/rat NG108-15, N2a, 24 h, read-out: cell viability) | viability at 5 µM ([6]; mouse/rat NG108-15, N2a, read-out: cell viability, delayed addition)
COC(=O)c1ccc(NC(=O)c2ccc(NC(=O)c3ccc(NC(=O)c4ccc([N+](=O)[O-])c(OCC(C)C)n4)c(OCc4ccccc4)n3)c(OCC(=O)O)n2)c(OCC(=O)O)n1 [ADH-31] | wholly suppressed | completely suppressed | completely suppressed | weak intensities | 98±4% | effective in inhibiting | 2500 ± 100 nM | 69% |  |  |  |  |  |  |  |  | 
COC(=O)c1ccc(NC(=O)c2ccc(NC(=O)c3ccc([N+](=O)[O-])c(OCc4ccccc4)n3)c(OCCCN)n2)c(OCCCN)n1 [ADH-41] | completely inhibited; also recorded: effectively blocks; also recorded: decreased significantly | did not have any effect; also recorded: no effect | completely arrested; also recorded: completely inhibits; also recorded: completely suppressed | significantly weaker |  | effective in inhibiting | 1450 nM | 63% | no change | < 10% | agonist | did not have any effect; also recorded: no effect | 1400 ± 100 nM | 79±2 | 102±2 | 99% | 93 ± 2%
